{
  "source": "patent US20090062317A1",
  "about": "“MEDICINAL USE OF RECEPTOR LIGANDS” (7TM PHARMA A/S, priority 2004, published 2009)",
  "origin": "cited, not measured here",
  "test_system": "rats",
  "settings": "literature reports",
  "data": [
    {"smiles": "COCC1=C(C(=O)OC)[C@H](c2ccc(F)c(F)c2)N(C(=O)NCCCN2CCC(c3cccc(NC(C)=O)c3)CC2)C(=O)N1", "note": "[SNAP-7941]", "values": [
      {"measurement": "food intake induced by i.c.v.-injected MCH", "value": "suppress food intake"}
    ]},
    {"smiles": "CN(C)CC1CCc2cc(NC(=O)c3ccc(-c4ccc(F)cc4)cc3)ccc2C1", "note": "(centres unmarked) [Example T-226296]", "values": [
      {"measurement": "food intake induced by i.c.v.-injected MCH", "value": "suppress food intake"}
    ]}
  ]
}
